# According to patent publication US11325938B2, “CD73 inhibitors” (ORIC Pharmaceuticals, Inc., priority 2018, dated 2022):
# Biological target: CD73 (Homo sapiens (Human), UniProt P21589)
# Experiment: Biochemical assay: inhibition of CD73 activity (AMP hydrolysis, Malachite Green readout)
# Conditions: CD73 0.3208 nM, AMP 15 μM, 25 mM Tris-HCl pH 7.4, RT, absorbance 620 nm
# Outline: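 Phosphate from AMP hydrolysis (15 μM AMP, 10 min, RT) was detected by Malachite Green absorbance to give IC50s. Enzyme at 320 pM was first exposed 15 min to compounds, dosed from 100 μM in ½-log steps, in Tris pH 7.4 buffer with MgCl2, Brij-35 and BSA.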
# Chain of CD73 (P21589 27-574): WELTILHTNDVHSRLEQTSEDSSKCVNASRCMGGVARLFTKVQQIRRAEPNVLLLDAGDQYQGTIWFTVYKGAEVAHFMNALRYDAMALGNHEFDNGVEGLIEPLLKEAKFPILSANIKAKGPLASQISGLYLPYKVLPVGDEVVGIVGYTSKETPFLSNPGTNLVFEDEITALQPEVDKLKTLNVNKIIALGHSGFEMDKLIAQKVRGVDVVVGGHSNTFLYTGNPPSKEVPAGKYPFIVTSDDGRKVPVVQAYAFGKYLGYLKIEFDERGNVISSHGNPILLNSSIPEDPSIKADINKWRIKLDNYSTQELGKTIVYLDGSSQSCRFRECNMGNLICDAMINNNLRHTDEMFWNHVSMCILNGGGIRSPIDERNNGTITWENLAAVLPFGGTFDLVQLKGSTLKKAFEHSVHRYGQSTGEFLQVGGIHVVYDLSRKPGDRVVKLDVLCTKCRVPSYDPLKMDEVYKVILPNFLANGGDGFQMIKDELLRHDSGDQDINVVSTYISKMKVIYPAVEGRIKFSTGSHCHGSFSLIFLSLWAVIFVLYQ
row,IC50 [nM],SMILES
1,> 1000,"CC(CN1CCOCC1)(OC[C@H]1O[C@@H](n2ncc3c(NC4CCCC4)nc(Cl)nc32)[C@H](O)[C@@H]1O)P(=O)(O)O (stereo partly drawn) [Example 71, (2-(((2R,3S,4R,5R)-5-(6-chloro-4-(cyclopentylamino)-1H-pyrazolo[3,4-d]pyrimidin-1-yl)-3,4-dihydroxytetrahydrofuran-2-yl)methoxy)-1-morpholinopropan-2-yl)phosphonic acid]"
2,≤ 100,"O=P(O)(O)C(CO)(CO)OC[C@H]1O[C@@H](n2ncc3c(NC4CCC4)nc(Cl)nc32)[C@H](O)[C@@H]1O [Example 116, (2-(((2R,3S,4R,5R)-5-(6-chloro-4-(cyclobutylamino)-1H-pyrazolo[3,4-d]pyrimidin-1-yl)-3,4-dihydroxytetrahydrofuran-2-yl)methoxy)-1,3-dihydroxypropan-2-yl)phosphonic acid]"
3,≤ 100,"O=P(O)(O)C(CO)(CO)OC[C@H]1O[C@H](n2ncc3c(NCc4ccc(Cl)cc4)nc(Cl)nc32)[C@H](O)[C@@H]1O (racemic) [Example 203, rac-(2-(((2R,3S,4R,5S)-5-(6-chloro-4-((4-chlorobenzyl)amino)-1H-pyrazolo[3,4-d]pyrimidin-1-yl)-3,4-dihydroxytetrahydrofuran-2-yl)methoxy)-1,3-dihydroxypropan-2-yl)phosphonic acid]"
4,≤ 100,"C[C@](CO)(OC[C@H]1O[C@@H](n2ncc3c(NC4CCCC4)nc(CO)nc32)[C@H](O)[C@@H]1O)P(=O)(O)O [Example 127, ((S)-2-(((2R,3S,4R,5R)-5-(4-(cyclopentylamino)-6-(hydroxymethyl)-1H-pyrazolo[3,4-d]pyrimidin-1-yl)-3,4-dihydroxytetrahydrofuran-2-yl)methoxy)-1-hydroxypropan-2-yl)phosphonic acid]"
5,≤ 100,"C[C@@H]1CCC[C@@H]1Nc1nc(Cl)nc2c1cnn2[C@@H]1O[C@H](COC(CO)(Cc2nn[nH]n2)P(=O)(O)O)[C@@H](O)[C@H]1O (mixture of isomers) [Example 209, rac-(2-(((2R,3S,4R,5R)-5-(6-chloro-4-(((1S,2R)-2-methylcyclopentyl)amino)-1H-pyrazolo[3,4-d]pyrimidin-1-yl)-3,4-dihydroxytetrahydrofuran-2-yl)methoxy)-1-hydroxy-3-(2H-tetrazol-5-yl)propan-2-yl)phosphonic acid]"
6,≤ 100,"CC(CO)(P(=O)(O)O)S(=O)(=O)C[C@H]1O[C@@H](n2ncc3c(NC4CCCC4)nc(Cl)nc32)[C@H](O)[C@@H]1O (stereo partly drawn) [Example 8, (2-((((2S,3S,4R,5R)-5-(6-Chloro-4-(cyclopentylamino)-1H-pyrazolo[3,4-d]pyrimidin-1-yl)-3,4-dihydroxytetrahydrofuran-2-yl)methyl)sulfonyl)-1-hydroxypropan-2-yl)phosphonic acid]"
7,≤ 100,"CC(CO)(OC[C@H]1O[C@@H](n2ncc3c(N[C@H]4CCC45CCC5)nc(Cl)nc32)[C@H](O)[C@@H]1O)P(=O)(O)O (stereo partly drawn) [Example 136, (2-(((2R,3S,4R,5R)-5-(6-chloro-4-(((S)-spiro[3.3]heptan-1-yl)amino)-1H-pyrazolo[3,4-d]pyrimidin-1-yl)-3,4-dihydroxytetrahydrofuran-2-yl)methoxy)-1-hydroxypropan-2-yl)phosphonic acid]"
8,≤ 100,"CC#CC[C@](CO)(OC[C@H]1O[C@@H](n2ncc3c(NC4CCCC4)nc(Cl)nc32)[C@H](O)[C@@H]1O)P(=O)(O)O [Example 98, ((S)-2-(((2R,3S,4R,5R)-5-(6-chloro-4-(cyclopentylamino)-1H-pyrazolo[3,4-d]pyrimidin-1-yl)-3,4-dihydroxytetrahydrofuran-2-yl)methoxy)-1-hydroxyhex-4-yn-2-yl)phosphonic acid]"
9,≤ 100,"C[C@H](O)[C@H](OC[C@H]1O[C@@H](n2ncc3c(NC4CCCC4)nc(Cl)nc32)[C@H](O)[C@@H]1O)P(=O)(O)O [Example 12, ((1R,2S)-1-(((2R,3S,4R,5R)-5-(6-chloro-4-(cyclopentylamino)-1H-pyrazolo[3,4-d]pyrimidin-1-yl)-3,4-dihydroxytetrahydrofuran-2-yl)methoxy)-2-hydroxypropyl)phosphonic acid]"
10,≤ 100,"CC(CO)(OC[C@H]1O[C@@H](n2ncc3c(N[C@@H]4CCc5ccccc54)nc(Cl)nc32)[C@H](O)[C@@H]1O)P(=O)(O)O (stereo partly drawn) [Example 61, (2-(((2R,3S,4R,5R)-5-(6-chloro-4-(((R)-2,3-dihydro-1H-inden-1-yl)amino)-1H-pyrazolo[3,4-d]pyrimidin-1-yl)-3,4-dihydroxytetrahydrofuran-2-yl)methoxy)-1-hydroxypropan-2-yl)phosphonic acid]"
11,≤ 100,"O=P(O)(O)[C@](CO)(Cc1ncco1)OC[C@H]1O[C@@H](n2ncc3c(NC4CCCC4)nc(Cl)nc32)[C@H](O)[C@@H]1O [Example 92, ((S)-2-(((2R,3S,4R,5R)-5-(6-chloro-4-(cyclopentylamino)-1H-pyrazolo[3,4-d]pyrimidin-1-yl)-3,4-dihydroxytetrahydrofuran-2-yl)methoxy)-1-hydroxy-3-(oxazol-2-yl)propan-2-yl)phosphonic acid]"
12,≤ 100,"COC[C@@](C)(OC[C@H]1O[C@@H](n2ncc3c(NCC4CC4)nc(Cl)nc32)[C@H](O)[C@@H]1O)P(=O)(O)O [Example 129, ((S)-2-(((2R,3S,4R,5R)-5-(6-chloro-4-((cyclopropylmethyl)amino)-1H-pyrazolo[3,4-d]pyrimidin-1-yl)-3,4-dihydroxytetrahydrofuran-2-yl)methoxy)-1-methoxypropan-2-yl)phosphonic acid]"
13,≤ 100,"COCC(C)(OC[C@H]1O[C@@H](n2ncc3c(NC4CCCC4)cc(Cl)nc32)[C@H](O)[C@@H]1O)P(=O)(O)O (stereo partly drawn) [Example 111, (2-(((2R,3S,4R,5R)-5-(6-chloro-4-(cyclopentylamino)-1H-pyrazolo[3,4-b]pyridin-1-yl)-3,4-dihydroxytetrahydrofuran-2-yl)methoxy)-1-methoxypropan-2-yl)phosphonic acid]"
14,≤ 100,"O=C(O)c1cccc(CC(CO)(OC[C@H]2O[C@@H](n3ncc4c(NC5CCCC5)nc(Cl)nc43)[C@H](O)[C@@H]2O)P(=O)(O)O)c1 (mixture of isomers) [Example 190, rac-3-(2-(((2R,3S,4R,5R)-5-(6-chloro-4-(cyclopentylamino)-1H-pyrazolo[3,4-d]pyrimidin-1-yl)-3,4-dihydroxytetrahydrofuran-2-yl)methoxy)-3-hydroxy-2-phosphonopropyl)benzoic acid]"
15,≤ 100,"C[C@](Cc1nn[nH]n1)(OC[C@H]1O[C@@H](n2ncc3c(NC4CCCC4)nc(Cl)nc32)[C@H](O)[C@@H]1O)P(=O)(O)O [Example 120, ((S)-2-(((2R,3S,4R,5R)-5-(6-chloro-4-(cyclopentylamino)-1H-pyrazolo[3,4-d]pyrimidin-1-yl)-3,4-dihydroxytetrahydrofuran-2-yl)methoxy)-1-(2H-tetrazol-5-yl)propan-2-yl)phosphonic acid]"
16,100 to 1000,"O=C(c1ccccc1)C(OC[C@H]1O[C@@H](n2ncc3c(NC4CCCC4)nc(Cl)nc32)[C@H](O)[C@@H]1O)P(=O)(O)O (stereo partly drawn) [Example 41, (1-(((2R,3S,4R,5R)-5-(6-chloro-4-(cyclopentylamino)-1H-pyrazolo[3,4-d]pyrimidin-1-yl)-3,4-dihydroxytetrahydrofuran-2-yl)methoxy)-2-oxo-2-phenylethyl)phosphonic acid]"
17,≤ 100,"O=P(O)(O)[C@@](CO)(Cc1nn[nH]n1)OC[C@H]1O[C@@H](n2ncc3c(NCC4CC4)nc(Cl)nc32)[C@H](O)[C@@H]1O (racemic) [Example 197, rac-((R)-2-(((2R,3S,4R,5R)-5-(6-chloro-4-((cyclopropylmethyl)amino)-1H-pyrazolo[3,4-d]pyrimidin-1-yl)-3,4-dihydroxytetrahydrofuran-2-yl)methoxy)-1-hydroxy-3-(2H-tetrazol-5-yl)propan-2-yl)phosphonic acid]"
18,≤ 100,"CC(CO)(OC[C@H]1O[C@@H](n2ncc3c(NC4CCC4)nc(Cl)nc32)[C@H](O)[C@@H]1O)P(=O)(O)O (stereo partly drawn) [Example 130, (2-(((2R,3S,4R,5R)-5-(6-chloro-4-(cyclobutylamino)-1H-pyrazolo[3,4-d]pyrimidin-1-yl)-3,4-dihydroxytetrahydrofuran-2-yl)methoxy)-1-hydroxypropan-2-yl)phosphonic acid]"
19,100 to 1000,"O=P(O)(O)C(OC[C@H]1O[C@@H](n2ncc3c(NC4CCCC4)nc(Cl)nc32)[C@H](O)[C@@H]1O)C(F)(F)F (stereo partly drawn) [Example 80, (1-(((2R,3S,4R,5R)-5-(6-chloro-4-(cyclopentylamino)-1H-pyrazolo[3,4-d]pyrimidin-1-yl)-3,4-dihydroxytetrahydrofuran-2-yl)methoxy)-2,2,2-trifluoroethyl)phosphonic acid]"
20,≤ 100,"C[C@@H](P(=O)(O)O)S(=O)(=O)C[C@H]1O[C@@H](n2ncc3c(NC4CCCC4)nc(Cl)nc32)[C@H](O)[C@@H]1O [Example 6, ((S)-1-((((2S,3S,4R,5R)-5-(6-Chloro-4-(cyclopentylamino)-1H-pyrazolo[3,4-d]pyrimidin-1-yl)-3,4-dihydroxytetrahydrofuran-2-yl)methyl)sulfonyl)ethyl)phosphonic acid]"
21,≤ 100,"CC(CO)(OC[C@H]1O[C@@H](n2nnc3c(NC4CCCC4)cc(Cl)nc32)[C@H](O)[C@@H]1O)P(=O)(O)O (stereo partly drawn) [Example 66, (2-(((2R,3S,4R,5R)-5-(5-chloro-7-(cyclopentylamino)-3H-[1,2,3]triazolo[4,5-b]pyridin-3-yl)-3,4-dihydroxytetrahydrofuran-2-yl)methoxy)-1-hydroxypropan-2-yl)phosphonic acid]"
22,≤ 100,"O=P(O)(O)C(CO)(CO)OC[C@H]1O[C@@H](n2ncc3c(NCC4CC4)nc(CO)nc32)[C@H](O)[C@@H]1O (racemic) [Example 202, rac-(2-(((2R,3S,4R,5R)-5-(4-((cyclopropylmethyl)amino)-6-(hydroxymethyl)-1H-pyrazolo[3,4-d]pyrimidin-1-yl)-3,4-dihydroxytetrahydrofuran-2-yl)methoxy)-1,3-dihydroxypropan-2-yl)phosphonic acid]"
